Patent US20250228239A1, “MOLECULES HAVING PESTICIDAL UTILITY, AND INTERMEDIATES, COMPOSITIONS, AND PROCESSES, RELATED THERETO” (priority 2024, published 2025)
Where two headings read alike, the source gives them in different places.

What was measured:
Assay type in all cases: in vivo
[1] = tested on: Yellow Fever Mosquito (Aedes aegypti, AEDSAE); conditions: for YFM rating: Table ABC / ABC-DP rating
Experimental: Certain molecules disclosed in this document were tested against YFM using procedures described in the following paragraph. In the reporting of the results, the “GPA & YFM Rating Table” was used (See Table Section).
Master plates containing 400 μg of a molecule dissolved in 100 μL of dimethyl sulfoxide (DMSO) (equivalent to a 4000 ppm solution) are used. A master plate of assembled molecules contains 15 μL per well. To this plate, 135 μL of a 90:10 water/acetone mixture is added to each well. A robot (Biomek® NXP Laboratory Automation Workstation) is programmed to dispense 15 μL aspirations from the master plate into an empty 96-well shallow plate (“daughter” plate). There are 6 reps (“daughter” plates) created per master. The created “daughter” plates are then immediately infested with YFM larvae.
The day before plates are to be treated, mosquito eggs are placed in Millipore water containing liver powder to begin hatching (4 g into 400 mL). After the “daughter” plates are created using the robot, they are infested with 220 μL of the liver powder/larval mosquito mixture (about 1 day-old larvae). After plates are infested with mosquito larvae, a non-evaporative lid is used to cover the plate to reduce drying. Plates are held at room temperature for 3 days prior to grading. After 3 days, each well is observed and scored based on mortality. The results are indicated in the table entitled “Table ABC: Biological Results” (See Table Section).

[2] = tested on: Beet Armyworm (Spodoptera exigua, LAPHEG); experiment: Bioassays on Beet Armyworm (BAW), 128-well diet tray assay; conditions: Spodoptera exigua
In short: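 Mortality of second-instar larvae (1–5/well) on artificial diet treated with 50 μg/cm^2 compound, read after 5–7 days at 25° C.; values are means of eight wells.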

[3] = tested on: Cabbage Looper (Trichoplusia ni, TRIPNI); experiment: Bioassays on Cabbage Looper (CL), 128-well diet tray assay; conditions: Trichoplusia ni
In short: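 Diet tray, 2nd instar, 1–5 larvae/well; 50 μg/cm^2 compound surface-applied (acetone:water 90:10), dried; 8 wells/treatment; 25° C, 14:10 L:D, 5–7 d; % mortality, mean of 8 wells.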

[4] = Beet Armyworm, Table ABC / ABC-DP rating, read-out: BAW rating
[5] = Cabbage Looper, Table ABC / ABC-DP rating, read-out: CL rating
[6] = Table ABC: Biological Results, species YFM
[7] = Table ABC: Biological Results, species BAW, read-out: BAW
[8] = Table ABC: Biological Results, species CL, read-out: CL
[9] = Yellow Fever Mosquito, rating class
[10] = Beet Armyworm, rating class, read-out: BAW
[11] = Cabbage Looper, rating class, read-out: CL

Structure (SMILES)	YFM rating ([1]; Yellow Fever Mosquito)	pest or weed control at 50 µg/cm2 [2, 4] [%]	pest or weed control at 50 µg/cm2 [3, 5] [%]	YFM [1, 6]	pest or weed control at 50 µg/cm2 [2, 7] [%]	pest or weed control at 50 µg/cm2 [3, 8] [%]	also measured
N#Cc1ccccc1NNC(=O)c1cc(NC(=O)[C@H]2[C@H](c3cc(Cl)cc(Cl)c3)C2(Cl)Cl)ccc1Cl (relative stereo) [F2576, trans-2,2-Dichloro-N-(4-chloro-3-(2-(2-cyanophenyl)hydrazine-1-carbonyl)phenyl)-3-(3,5-dichlorophenyl)cyclopropane-1-carboxamide]	A (80–100)	50 to 100	50 to 100	–	–	–	YFM % Control (or Mortality) rating ([1]; about 1 day-old larvae, 4000 ppm master solution diluted with 90:10 water/acetone, 15 μL per well plus 220 μL larval mixture, 3 days, mortality): A (80–100); mortality at 50 µg/cm2 ([2]; 168 h, second instar larvae, 50 μg/cm^2 of test molecule on artificial diet, 25° C., five to seven days, average of eight wells, read-out: BAW % Control (or Mortality) rating): 50 to 100%; mortality at 50 µg/cm2 ([3]; 168 h, second instar larvae, 50 μg/cm^2 of test molecule on artificial diet, 25° C., five to seven days, average of eight wells, read-out: CL % Control (or Mortality) rating): 50 to 100%
O=C(NCC(F)(F)F)c1cc(NC(=O)[C@H]2[C@@H](c3ccc(F)c(Cl)c3F)C2(Cl)Cl)ccc1Cl (relative stereo) [F2010, cis-2-Chloro-5-(2,2-dichloro-3-(3-chloro-2,4-difluorophenyl)cyclopropane-1-carboxamido)-N-(2,2,2-trifluoroethyl)benzamide]	A (80–100)	50 to 100	50 to 100	–	–	–	–
Cc1cc(NCCO)ccc1NC(=O)c1cc(NC(=O)[C@H]2[C@H](c3cc(Cl)cc(Cl)c3)C2(Cl)Cl)ccc1Cl (relative stereo) [F1130, trans-2-chloro-5-(2,2-dichloro-3-(3,5-dichlorophenyl)cyclopropane-1-carboxamido)-N-(4-((2-hydroxyethyl)amino)-2-methylphenyl)benzamide]	–	–	–	A (80–100)	50 to 100	50 to 100	–
Nc1c(F)ccc(NC(=O)c2cc(NC(=O)[C@H]3[C@H](c4cc(Cl)cc(C(F)F)c4)C3(Cl)Cl)ccc2Cl)c1F (relative stereo) [F1038, trans-N-(3-Amino-2,4-difluorophenyl)-2-chloro-5-(2,2-dichloro-3-(3-chloro-5-(difluoromethyl)phenyl)cyclopropane-1-carboxamido)benzamide]	–	–	–	A (80–100)	50 to 100	50 to 100	–
CN(NC(=O)c1cc(NC(=O)[C@H]2[C@H](c3cc(Cl)cc(Cl)c3)C2(Cl)Cl)ccc1Cl)C(=O)OC(C)(C)C (relative stereo) [F2520, trans-tert-Butyl 2-(2-chloro-5-(2,2-dichloro-3-(3,5-dichlorophenyl)cyclopropane-1-carboxamido)benzoyl)-1-methylhydrazine-1-carboxylate]	A (80–100)	50 to 100	50 to 100	–	–	–	–
CCCC(=O)Nc1c(F)ccc(NC(=O)c2cc(NC(=O)[C@H]3[C@H](c4cc(C(F)(F)F)cc(C(F)(F)F)c4)C3(Cl)Cl)ccc2Cl)c1F (relative stereo) [F1806, trans-5-(3-(3,5-bis(Trifluoromethyl)phenyl)-2,2-dichlorocyclopropane-1-carboxamido)-N-(3-butyramido-2,4-difluorophenyl)-2-chlorobenzamide]	A (80–100)	50 to 100	50 to 100	–	–	–	–
Nc1c(F)ccc(NC(=O)c2cc(NC(=O)[C@H]3[C@H](c4cc(F)c(F)c(Br)c4)C3(Cl)Cl)ccc2Cl)c1F (relative stereo) [F1044, trans-N-(3-Amino-2,4-difluorophenyl)-5-(3-(3-bromo-4,5-difluorophenyl)-2,2-dichlorocyclopropane-1-carboxamido)-2-chlorobenzamide]	–	–	–	A (80–100)	50 to 100	50 to 100	–
CCOC(C)(C)C(=O)Nc1c(F)ccc(NC(=O)c2cc(NC(=O)[C@H]3[C@H](c4ccc(F)c(C(F)(F)F)c4)C3(Cl)Cl)ccc2Cl)c1F [F1603, 2-Chloro-5-((1R,3R)-2,2-dichloro-3-(4-fluoro-3-(trifluoromethyl)phenyl)cyclopropane-1-carboxamido)-N-(3-(2-ethoxy-2-methylpropanamido)-2,4-difluorophenyl)benzamide]	–	–	–	–	–	–	YFM [1, 9]: A (80–100); pest or weed control at 50 µg/cm2 [2, 10]: 50 to 100%; pest or weed control at 50 µg/cm2 [3, 11]: 50 to 100%
O=C(Nc1ccc(F)c(NC(=O)C(F)(F)C(F)F)c1F)c1cc(NC(=O)[C@H]2[C@H](c3ccc(F)c(C(F)(F)F)c3)C2(Cl)Cl)ccc1Cl [F1301, 2-Chloro-5-((1R,3R)-2,2-dichloro-3-(4-fluoro-3-(trifluoromethyl)phenyl)cyclopropane-1-carboxamido)-N-(2,4-difluoro-3-(2,2,3,3-tetrafluoropropanamido)phenyl)benzamide]	–	–	–	A (80–100)	50 to 100	50 to 100	–
CN(C(=O)c1cc(NC(=O)[C@H]2[C@H](c3ccc(F)c(C(F)(F)F)c3)C2(Cl)Cl)ccc1Cl)c1ccc(F)c(NC(=O)C2CCCO2)c1F (stereo partly drawn) [F1798, N-(3-(2-Chloro-5-((1R,3R)-2,2-Dichloro-3-(4-fluoro-3-(trifluoromethyl)phenyl)cyclopropane-1-carboxamido)-N-methylbenzamido)-2,6-difluorophenyl)tetrahydrofuran-2-carboxamide]	B (More than 0 – Less than 80)	50 to 100	50 to 100	–	–	–	–
O=C(Nc1ccc(F)c(NC(=O)C(F)F)c1F)c1cc(NC(=O)[C@H]2[C@H](c3cc(Cl)cc(Cl)c3)C2(Cl)Cl)cc(F)c1F [F1440, 5-((1R,3R)-2,2-Dichloro-3-(3,5-dichlorophenyl)cyclopropane-1-carboxamido)-N-(3-(2,2-difluoroacetamido)-2,4-difluorophenyl)-2,3-difluorobenzamide]	–	–	–	–	–	–	YFM [1, 9]: A (80–100); pest or weed control at 50 µg/cm2 [2, 10]: 50 to 100%; pest or weed control at 50 µg/cm2 [3, 11]: 50 to 100%
O=C(Nc1ccc(F)c(NC(=O)C(C(F)(F)F)C(F)(F)F)c1F)c1cc(NC(=O)[C@H]2[C@H](c3ccc(Cl)c(Cl)c3)C2(Cl)Cl)ccc1Cl [F1607, 2-Chloro-5-((1R,3R)-2,2-dichloro-3-(3,4-dichlorophenyl)cyclopropane-1-carboxamido)-N-(2,4-difluoro-3-(3,3,3-trifluoro-2-(trifluoromethyl)propanamido)phenyl)benzamide]	–	–	–	–	–	–	YFM [1, 9]: A (80–100); pest or weed control at 50 µg/cm2 [2, 10]: 50 to 100%; pest or weed control at 50 µg/cm2 [3, 11]: 50 to 100%
O=C(Nc1c(F)ccc(NC(=O)c2cc(NC(=O)[C@H]3[C@H](c4ccc(F)c(C(F)(F)F)c4)C3(Cl)Cl)ccc2Cl)c1F)c1ccco1 [F1300, N-(3-(2-Chloro-5-((1R,3R)-2,2-dichloro-3-(4-fluoro-3-(trifluoromethyl)phenyl)cyclopropane-1-carboxamido)benzamido)-2,6-difluorophenyl)furan-2-carboxamide]	–	–	–	A (80–100)	50 to 100	50 to 100	–
CO[C@@H](C)C(=O)Nc1c(F)ccc(NC(=O)c2cc(NC(=O)[C@H]3[C@H](c4ccc(F)c(C(F)(F)F)c4)C3(Cl)Cl)ccc2Cl)c1F [F1720, 2-Chloro-5-((1R,3R)-2,2-dichloro-3-(4-fluoro-3-(trifluoromethyl)phenyl)cyclopropane-1-carboxamido)-N-(2,4-difluoro-3-((S)-2-methoxypropanamido)phenyl)benzamide]	–	–	–	–	–	–	YFM [1, 9]: A (80–100); pest or weed control at 50 µg/cm2 [2, 10]: 50 to 100%; pest or weed control at 50 µg/cm2 [3, 11]: 50 to 100%
O=C(COC(F)(F)C(F)(F)F)Nc1c(F)ccc(NC(=O)c2cc(NC(=O)[C@H]3[C@H](c4ccc(F)c(C(F)(F)F)c4)C3(Cl)Cl)ccc2Cl)c1F [F1808, 2-Chloro-5-((1R,3R)-2,2-dichloro-3-(4-fluoro-3-(trifluoromethyl)phenyl)cyclopropane-1-carboxamido)-N-(2,4-difluoro-3-(2-(perfluoroethoxy)acetamido)phenyl)benzamide]	B (More than 0 – Less than 80)	50 to 100	50 to 100	–	–	–	–
COc1ccc(CNc2ccc(NC(=O)c3cc(NC(=O)[C@H]4[C@H](c5cc(Cl)cc(Cl)c5)C4(Cl)Cl)ccc3Cl)c(C)c2)cc1 (relative stereo) [F1035, trans-2-Chloro-5-(2,2-dichloro-3-(3,5-dichlorophenyl)cyclopropane-1-carboxamido)-N-(4-((4-methoxybenzyl)amino)-2-methylphenyl)benzamide]	–	–	–	A (80–100)	50 to 100	50 to 100	–
